The target of this experiment is T1, human GPR119 (Homo sapiens, UniProt Q8TDV5).
T1 construct: expressed in transfected cells; host or cells: Flp-In-CHO cells (Invitrogen, Cat.# R758-07), stably transfected with hGPR119 in pcDNA5/FRT plus pOG44
T1 sequence (Q8TDV5 1-335): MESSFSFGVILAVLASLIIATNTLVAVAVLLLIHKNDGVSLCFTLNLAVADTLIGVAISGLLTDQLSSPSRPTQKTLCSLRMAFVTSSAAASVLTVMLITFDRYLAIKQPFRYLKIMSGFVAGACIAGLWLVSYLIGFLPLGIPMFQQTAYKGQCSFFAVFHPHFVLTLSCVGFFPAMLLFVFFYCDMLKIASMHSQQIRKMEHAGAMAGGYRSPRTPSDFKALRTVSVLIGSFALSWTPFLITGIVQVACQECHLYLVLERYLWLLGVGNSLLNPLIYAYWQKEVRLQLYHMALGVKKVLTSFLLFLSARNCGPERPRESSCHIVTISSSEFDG
The experiment can be described thus: Cyclic AMP assay in CHO-hGPR119 cells (HTRF). It is filed as cell-based. As to conditions: increase in intracellular cAMP; GPR119-transfected CHO cells. As for the experimental part: Flp-In-CHO cells (Invitrogen, Cat.# R758-07) are maintained in Ham's F12 medium supplemented with 10% fetal bovine serum, 1% antibiotic mixture and 2 mM L-glutamine. The cells are transfected with a DNA mixture containing human GPR119 (hGPR119) or mouse GPR119 (mGPR119) in the pcDNA5/FRT vector (Invitrogen) and the pOG44 vector (Invitrogen) in a 1:9 ratio using Fugene6 (Roche), according to the manufacturer's instructions. After 48 hours, the medium is changed to medium supplemented with 400 μg/mL hygromycin B to initiate the selection of stably transfected cells. The resultant cell lines are designated CHO-hGPR119 and CHO-mGPR119 respectively.
To test the activity of compounds of the invention on human GPR119, CHO-hGPR119 cells are harvested and resuspended at 300,000 cells/mL in assay media (Ham's F12 medium plus 3% lipid-depleted fetal bovine serum, 1 mM 3-isobutyl-1-methyl-xanthine (IBMX)). Cells (5 μl) are placed in each well of a white 1536-well plate. A compound of the invention (50 nL) diluted in 100% dimethyl sulfoxide (DMSO) is added to each well and the plates are incubated at 37° C. for 30 minutes. cAMP concentrations are then measured using the cAMP dynamic 2 kit (Cisbio Bioassays) according to the manufacturer's instructions. 2.5 μL of diluted cAMP-XL665 is added to each well, followed by 2.5 μL diluted anti-cAMP-Cryptate. The plate is covered and incubated for one hour at room temperature, then read on an Envision plate reader (Perkin Elmer) using the HTRF method with excitation at 337 nm, and emissions measured at 620 nm and […].
On the technique in general: In TR-FRET formats the signal depends on donor and acceptor labels being close together.
For the compound `CC(C)OC(=O)N1CCC(CCCOc2ccc(N3CCN(S(C)(=O)=O)CC3)cc2)CC1` [Example A3], the EC50 is greater than 800 nM. In the case of `CC(C)OC(=O)N1CCC(COc2ccc(N3CCN(S(C)(=O)=O)CC3)nn2)CC1` [Example C2, Isopropyl 4-((6-(4-(methylsulfonyl)piperazin-1-yl)pyridazin-3-yloxy)methyl)piperidine-1-carboxylate] it was greater than 800 nM; in that of `CC(C)OC(=O)N1CCC(CCc2ccc(N3CCN(S(C)(=O)=O)CC3)nc2)CC1` [Example D2, Isopropyl 4-(2-(6-(4-(methylsulfonyl)piperazin-1-yl)pyridin-3-yl)ethyl)piperidine-1-carboxylate], 200 to 800 nM; in that of `CC1(OC(=O)N2CCC(COc3cnc(N4CCN(S(C)(=O)=O)CC4)cn3)CC2)CC1` [Example E3, 1-Methylcyclopropyl 4-((5-(4-(methylsulfonyl)piperazin-1-yl)pyrazin-2-yloxy)methyl)piperidine-1-carboxylate], less than 200 nM. In the case of `CC(C)c1noc(N2CCC(COc3ccc(N4CCN(S(C)(=O)=O)CC4)cn3)CC2)n1` [Example E9, 3-Isopropyl-5-(4-((5-(4-(methylsulfonyl)piperazin-1-yl)pyridin-2-yloxy)methyl)piperidin-1-yl)-1,2,4-oxadiazole] it was 200 to 800 nM; in that of `CC(C)(C)OC(=O)N1CCC(COc2cnc(N3CCCN(S(C)(=O)=O)CC3)cn2)CC1` [Example G1, tert-Butyl 4-((5-(4-(methylsulfonyl)-1,4-diazepan-1-yl)pyrazin-2-yloxy)methyl)piperidine-1-carboxylate], greater than 800 nM; in that of `CC1(OC(=O)N2CCC(COc3cnc(N4CCC(S(C)(=O)=O)CC4)cn3)CC2)CC1` [Example G4, 1-Methylcyclopropyl 4-((5-(4-(methylsulfonyl)piperidin-1-yl)pyrazin-2-yloxy)methyl)piperidine-1-carboxylate], less than 200 nM. `CCc1cnc(N2CCC(CCCc3nc(N4CCN(S(C)(=O)=O)CC4)no3)CC2)nc1` [Example H3, 5-(3-(1-(5-Ethylpyrimidin-2-yl)piperidin-4-yl)propyl)-3-(4-(methylsulfonyl)piperazin-1-yl)-1,2,4-oxadiazole] displayed an EC50 of less than 200 nM. In the case of `CC(C)c1noc(N2CCC(CCc3ncc(N4CCN(S(C)(=O)=O)CC4)s3)CC2)n1` [Example I1, 3-Isopropyl-5-(4-(2-(5-(4-(methylsulfonyl)piperazin-1-yl)thiazol-2-yl)ethyl)piperidin-1-yl)-1,2,4-oxadiazole] it was less than 200 nM; in that of `CC(C)c1nc(N2CCC(COc3ccc(C4=CCN(S(C)(=O)=O)CC4)cc3)CC2)no1` [Example J7], less than 200 nM. In the case of `CS(=O)(=O)N1CCC(c2ccc(OCC3CCN(c4ccc(Cl)cn4)CC3)cc2)CC1` [Example J22] it was less than 200 nM; in that of `CC1(OC(=O)N2CCC(COc3cnc(N4CCN(S(=O)(=O)CCCN5CCC5)CC4=O)cn3)CC2)CC1` [Example O9], less than 200 nM.

In turn, `CC1(OC(=O)N2CCC(COc3cnc(N4CCN(S(=O)(=O)[C@@H]5CCNC5)CC4=O)cn3)CC2)CC1` [Example O41] returned an EC50 of less than 200 nM. In the case of `CS(=O)(=O)N1CCC(C(=O)O)(c2ccc(OCC3CCN(c4ncc(F)cn4)CC3)cc2)CC1` [Example T1, 4-(4-((1-(5-fluoropyrimidin-2-yl)piperidin-4-yl)methoxy)phenyl)-1-(methylsulfonyl)piperidine-4-carboxylic acid] it was 200 to 800 nM; in that of `CC1(OC(=O)N2CCC(COc3cnc(N4CC(NS(C)(=O)=O)C4)cn3)CC2)CC1` [Example U5, 1-Methylcyclopropyl 4-((5-(3-(methylsulfonamido)azetidin-1-yl)pyrazin-2-yloxy)methyl)piperidine-1-carboxylate], less than 200 nM. `CCc1cnc(N2CCC(Oc3ccc4c5c(oc4c3)CN(S(C)(=O)=O)CC5)CC2)nc1` [Example V5, 7-(1-(5-Ethylpyrimidin-2-yl)piperidin-4-yloxy)-2-(methylsulfonyl)-1,2,3,4-tetrahydrobenzofuro[2,3-c]pyridine]: the EC50 is less than 200 nM.

By EC50 is commonly meant the concentration that produces a half-maximal response.

For the origin of these results see patent US8153635B2, “Compounds and compositions as modulators of GPR119 activity” (IRM LLC, priority 2007, dated 2012).
